biological target: T1, human EGF-receptor kinase (Homo sapiens, UniProt P00533); assay: Inhibition of human EGF-receptor kinase (enzyme assay, ELISA read-out); type: biochemical; settings: cytoplasmic tyrosine kinase domain as GST fusion protein, substrate pEY/bio-pEY, 30 minutes at ambient temperature
T1 construct: GST; made in house; host or cells: Sf9 insect cells (baculovirus)
Experimental: The inhibition of human EGF-receptor kinase was determined using the cytoplasmic tyrosine kinase domain (methionine 664 to alanine 1186 based on the sequence published in Nature 309 (1984), 418). For this the protein was expressed in Sf9 insect cells as GST fusion protein using the Baculovirus expression system.
The enzyme activity was measured in the presence or absence of the test compounds in serial dilutions. The polymer pEY (4:1) obtained from SIGMA was used as the substrate. Biotinylated pEY (bio-pEY) was added as the tracer substrate. 100 μl of reaction solution contained 10 μl of the inhibitor in 50% DMSO, 20 μl of the substrate solution (200 mM HEPES pH 7.4, 50 mM magnesium acetate, 2.5 mg/ml poly(EY), 5 μg/ml bio-pEY) and 20 μl of enzyme preparation. The enzyme reaction was started by the addition of 50 μl of a 100 μM ATP solution in 10 mM of magnesium chloride. The dilution of the enzyme preparation was adjusted so that the incorporation of phosphate in the bio-pEY was linear in terms of time and quantity of enzyme. The enzyme preparation was diluted in 20 mM HEPES pH 7.4, 1 mM EDTA, 130 mM common salt, 0.05% Triton X-100, 1 mM DTT and 10% glycerol.
The enzyme assays were carried out at ambient temperature over a period of 30 minutes and ended by the addition of 50 μl of a stopping solution (250 mM EDTA in 20 mM HEPES pH 7.4). 100 μl were placed on a streptavidine-coated microtitre plate and incubated for 60 minutes at ambient temperature. Then the plate was washed with 200 μl of a wash solution (50 mM Tris, 0.05% Tween 20). After the addition of 100 μl of an HRPO-labelled anti-PY antibody (PY20H Anti-PTyr:HRP made by Transduction Laboratories, 250 ng/ml) the preparation was incubated for 60 minutes. Then the microtitre plate was washed three times with 200 μl of wash solution. The samples were then combined with 100 μl of a TMB-peroxidase solution (A:B=1:1, Kirkegaard Perry Laboratories). After 10 minutes the reaction was stopped. The extinction was measured at OD450 nm with an ELISA reader. All the results were measured three times.
The data were adapted by iterative calculation using an analytical pogramme for sigmoidal curves (Graph Pad Prism Version 3.0) with a variable Hill pitch. […] The active substance concentration which inhibits the activity of EGF receptor kinase by 50% (IC50) was derived from the curves.

T1 sequence (P00533 688-1210): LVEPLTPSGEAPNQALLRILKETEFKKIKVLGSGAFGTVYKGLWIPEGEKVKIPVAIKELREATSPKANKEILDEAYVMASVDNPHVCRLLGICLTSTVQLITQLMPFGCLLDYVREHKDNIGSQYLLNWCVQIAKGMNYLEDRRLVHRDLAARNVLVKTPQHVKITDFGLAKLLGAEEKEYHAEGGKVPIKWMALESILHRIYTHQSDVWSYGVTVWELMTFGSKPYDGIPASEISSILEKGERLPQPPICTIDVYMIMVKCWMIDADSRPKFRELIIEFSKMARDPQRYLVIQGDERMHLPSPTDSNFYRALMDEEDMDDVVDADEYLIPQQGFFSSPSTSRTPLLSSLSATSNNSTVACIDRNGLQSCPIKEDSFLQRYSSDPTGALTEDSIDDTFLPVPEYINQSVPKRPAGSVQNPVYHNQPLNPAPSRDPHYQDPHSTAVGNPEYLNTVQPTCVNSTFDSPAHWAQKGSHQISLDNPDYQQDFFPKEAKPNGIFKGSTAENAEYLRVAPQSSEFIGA

Row | Structure (SMILES) | IC50 [nM]
1 | COc1cc2ncnc(Nc3ccc(F)c(Cl)c3)c2cc1O[C@H]1CC[C@H](NC(=O)N2CCOCC2)CC1 [3(17), 4-[(3-chloro-4-fluoro-phenyl)amino]-6-{trans-4-[(morpholin-4-yl)carbonylamino]-cyclohexan-1-yloxy}-7-methoxy-quinazoline] | 0.3
2 | CS(=O)(=O)NCCOc1cc2ncnc(Nc3ccc(F)c(Cl)c3)c2cc1OC1CCOCC1 [3(21), 4-[(3-chloro-4-fluoro-phenyl)amino]-6-(tetrahydropyran-4-yloxy)-7-(2-methanesulphonylamino-ethoxy)-quinazoline] | 0.4
3 | COc1cc2ncnc(Nc3ccc(F)c(Cl)c3)c2cc1O[C@H]1CC[C@H](NS(=O)(=O)N2CCOCC2)CC1 [3(18), 4-[(3-chloro-4-fluoro-phenyl)amino]-6-{trans-4-[(morpholin-4-yl)sulphonylamino]-cyclohexan-1-yloxy}-7-methoxy-quinazoline] | 0.4
4 | COc1cc2ncnc(Nc3ccc(F)c(Cl)c3)c2cc1O[C@@H]1CCOC1 [1(3), 4-[(3-chloro-4-fluoro-phenyl)amino]-6-((R)-tetrahydrofuran-3-yloxy)-7-methoxy-quinazoline] | 1.1
5 | COc1cc2ncnc(Nc3ccc(F)c(Cl)c3)c2cc1OC1CCN(CCNC(C)=O)CC1 [3(15), 4-[(3-chloro-4-fluoro-phenyl)amino]-6-[1-(2-acetylamino-ethyl)-piperidin-4-yloxy]-7-methoxy-quinazoline] | 1
6 | COc1cc2ncnc(Nc3ccc(F)c(Cl)c3)c2cc1O[C@H]1CC[C@@H](NC(=O)OC(C)(C)C)CC1 [1(2), 4-[(3-chloro-4-fluoro-phenyl)amino]-6-[cis-4-(tert.-butyloxycarbonylamino)-cyclohexan-1-yloxy]-7-methoxy-quinazoline] | 2
7 | COc1cc2ncnc(Nc3ccc(F)c(Cl)c3)c2cc1O[C@H]1CC[C@H](NS(C)(=O)=O)CC1 [3(1), 4-[(3-chloro-4-fluoro-phenyl)amino]-6-(trans-4-methanesulphonylamino-cyclohexan-1-yloxy)-7-methoxy-quinazoline] | 0.14
8 | COc1cc2ncnc(Nc3ccc(F)c(Cl)c3)c2cc1O[C@H]1CC[C@H](NC(=O)OC(C)(C)C)CC1 [1(4), 4-[(3-chloro-4-fluoro-phenyl)amino]-6-[trans-4-(tert.-butyloxycarbonylamino)-cyclohexan-1-yloxy]-7-methoxy-quinazoline] | 0.6
9 | COc1cc2ncnc(Nc3ccc(F)c(Cl)c3)c2cc1OC1CCOCC1 [1(1), 4-[(3-chloro-4-fluoro-phenyl)amino]-6-(tetrahydropyran-4-yloxy)-7-methoxy-quinazoline] | 0.12
10 | COc1cc2ncnc(Nc3ccc(F)c(Cl)c3)c2cc1OC1CCN(C(=O)N2CCOCC2)CC1 [3(7), 4-[(3-chloro-4-fluoro-phenyl)amino]-6-{1-[(morpholin-4-yl)carbonyl]-piperidin-4-yloxy}-7-methoxy-quinazoline] | 0.7
11 | COc1cc2ncnc(Nc3ccc(F)c(Cl)c3)c2cc1OC1CCCOC1 (stereo not drawn) [1(6), 4-[(3-chloro-4-fluoro-phenyl)amino]-6-(tetrahydropyran-3-yloxy)-7-methoxy-quinazoline] | 0.69
12 | COCC(=O)N1CCC(Oc2cc3c(Nc4ccc(F)c(Cl)c4)ncnc3cc2OC)CC1 [3(8), 4-[(3-chloro-4-fluoro-phenyl)amino]-6-{1-[(methoxymethyl)carbonyl]-piperidin-4-yloxy}-7-methoxy-quinazoline] | 0.6
13 | CC(=O)NCCOc1cc2ncnc(Nc3ccc(F)c(Cl)c3)c2cc1OC1CCOCC1 [3(20), 4-[(3-chloro-4-fluoro-phenyl)amino]-6-(tetrahydropyran-4-yloxy)-7-(2-acetylamino-ethoxy)-quinazoline] | 1
14 | COc1cc2ncnc(Nc3ccc(F)c(Cl)c3)c2cc1OC1CCN(C(=O)OC(C)(C)C)CC1 [1(5), 4-[(3-chloro-4-fluoro-phenyl)amino]-6-[1-(tert.-butyloxycarbonyl)-piperidin-4-yloxy]-7-methoxy-quinazoline] | 0.6
15 | COc1cc2ncnc(Nc3ccc(F)c(Cl)c3)c2cc1OC1CCN(S(C)(=O)=O)CC1 [3(2), 4-[(3-chloro-4-fluoro-phenyl)amino]-6-(1-methanesulphonyl-piperidin-4-yloxy)-7-methoxy-quinazoline] | 0.22
16 | COc1cc2ncnc(Nc3ccc(F)c(Cl)c3)c2cc1O[C@H]1CC[C@H](NS(=O)(=O)N(C)C)CC1 [3(16), 4-[(3-chloro-4-fluoro-phenyl)amino]-6-{trans-4-[(dimethylamino)sulphonylamino]-cyclohexan-1-yloxy}-7-methoxy-quinazoline] | 1
17 | COc1cc2ncnc(Nc3ccc(F)c(Cl)c3)c2cc1OC1CCN(C#N)CC1 [3(9), 4-[(3-chloro-4-fluoro-phenyl)amino]-6-(1-cyano-piperidin-4-yloxy)-7-methoxy-quinazoline] | 0.2
18 | COc1cc2ncnc(Nc3ccc(F)c(Cl)c3)c2cc1O[C@H]1CC[C@H](N)CC1 [2(1), 4-[(3-chloro-4-fluoro-phenyl)amino]-6-(trans-4-amino-cyclohexan-1-yloxy)-7-methoxy-quinazoline] | 0.16
19 | COc1cc2ncnc(Nc3ccc(F)c(Cl)c3)c2cc1OC1CCN(S(=O)(=O)N2CCOCC2)CC1 [3(11), 4-[(3-chloro-4-fluoro-phenyl)amino]-6-{1-[(morpholin-4-yl)sulphonyl]-piperidin-4-yloxy}-7-methoxy-quinazoline] | 0.1

Next, values leading:

Row | IC50 [nM] | Structure (SMILES)
20 | 0.9 | COc1cc2ncnc(Nc3ccc(F)c(Cl)c3)c2cc1O[C@H]1CC[C@@H](NS(C)(=O)=O)CC1 [Example 3, 4-[(3-chloro-4-fluoro-phenyl)amino]-6-(cis-4-methanesulphonylamino-cyclohexan-1-yloxy)-7-methoxy-quinazoline]
21 | 1 | COCCOc1cc2ncnc(Nc3ccc(F)c(Cl)c3)c2cc1OC1CCOCC1 [7(5), 4-[(3-chloro-4-fluoro-phenyl)amino]-6-(tetrahydropyran-4-yloxy)-7-(2-methoxy-ethoxy)-quinazoline]
22 | 0.22 | COc1cc2ncnc(Nc3ccc(F)c(Cl)c3)c2cc1OC1CCNCC1 [Example 2(2), 4-[(3-chloro-4-fluoro-phenyl)amino]-6-(piperidin-4-yloxy)-7-methoxy-quinazoline x trifluoroacetic acid]
23 | 0.16 | COc1cc2ncnc(Nc3ccc(F)c(Cl)c3)c2cc1O[C@H]1CC[C@H](NS(=O)(=O)CCCN2CCOCC2)CC1 [4(1), 4-[(3-chloro-4-fluoro-phenyl)amino]-6-(trans-4-{[3-(morpholin-4-yl)-propyl]sulphonylamino}-cyclohexan-1-yloxy)-7-methoxy-quinazoline]
24 | 0.41 | COc1cc2ncnc(Nc3ccc(F)c(Cl)c3)c2cc1O[C@H]1CC[C@@H](NS(=O)(=O)CCCN2CCOCC2)CC1 [Example 4, 4-[(3-chloro-4-fluoro-phenyl)amino]-6-(cis-4-{[3-(morpholin-4-yl)-propyl]sulphonylamino}-cyclohexan-1-yloxy)-7-methoxy-quinazoline]

test system: not given; assay: not given; settings: not given

Row | melting point [°C] | Structure (SMILES)
25 | 171 | COc1cc2ncnc(Nc3ccc(F)c(Cl)c3)c2cc1OC1CCN(C(=O)N2CCCOCC2)CC1 [Example 12, 4-[(3-chloro-4-fluoro-phenyl)amino]-6-{1-[([1,4]oxazepan-4-yl)carbonyl)-piperidin-4-yloxy}-7-methoxy-quinazoline]
26 | 205 | Fc1ccc(Nc2ncnc3cc(OCCCN4CCOCC4)c(OC4CCOCC4)cc23)cc1Cl [Example 7, 4-[(3-chloro-4-fluoro-phenyl)amino]-6-(tetrahydropyran-4-yloxy)-7-[3-(morpholin-4-yl)-propyloxy]-quinazoline]
27 | 184 | COc1cc2ncnc(Nc3ccc(F)c(Cl)c3)c2cc1O[C@H]1CCOC1 [Example 1, 4-[(3-chloro-4-fluoro-phenyl)amino]-6-((S)-tetrahydrofuran-3-yloxy)-7-methoxy-quinazoline]
28 | 234 | COc1cc2ncnc(Nc3ccc(F)c(Cl)c3)c2cc1O[C@H]1CC[C@@H](NS(C)(=O)=O)CC1 [Example 3, 4-[(3-chloro-4-fluoro-phenyl)amino]-6-(cis-4-methanesulphonylamino-cyclohexan-1-yloxy)-7-methoxy-quinazoline]
29 | 233 | CN(C)C(=O)CN1CCC(Oc2ccc3ncnc(Nc4ccc(F)c(Cl)c4)c3c2)CC1 [Example 10, 4-[(3-chloro-4-fluoro-phenyl)amino]-6-{1-[(dimethylamino)carbonylmethyl]-piperidin-4-yloxy}-quinazoline]
30 | 251 | COc1cc2ncnc(Nc3ccc(F)c(Cl)c3)c2cc1O[C@H]1CCNC1.Cl.Cl

From patent publication US6924285B2, “Bicyclic heterocyclic compounds, pharmaceutical compositions containing these compounds, their use and process for preparing them” (Boehringer Ingelheim Pharma GmbH & Co., priority 2002, dated 2005)
